# Legend:
# [1] = test system: PC12 cells; assay: Evaluation using PC12 cells; immunostaining method for MAPK phosphorylation; format: cell-based; conditions: 30 minutes
# Description: PC12 cells were stimulated using the compound of the present invention and the phosphorylation of MAPK was evaluated by means of immunostaining of the cells. The specific operation procedure is as follows.
# A cover glass was placed on a 24-well plate followed by coating with poly-L-lysine. PC12 cells were seeded in a cell density of 50,000 cells/well. (The amount of the medium was 400 μL) On the first day after seeding the cells, the medium was exchanged to DMEM containing 1% fetal bovine serum (FBS) and 0.06% L-glutamine.
# The compound which was previously diluted with DMSO was dissolved in 100 μl of medium. After 12 to 16 hours from the medium exchange, 100 μl out of 400 μl of the medium was removed from each well and, in place of that, 100 μl of a medium containing the compound was added.
# After 30 minutes from the addition, fixation was conducted using 4% paraformaldehyde (PFA) for 10 minutes. The fixed cells were washed with a Tris-buffered saline (TBS) and a TBS containing 0.3% Triton X was added thereto followed by incubating at 37° C. for 30 minutes. This was washed with a TBS and blocked with a TBS containing 3% skim milk for 30 minutes (at room temperature).
# This was washed with a TBS for one time and a primary antibody (anti-phospho-p42/44 MAPK antibody; cell signalings; #9102 being diluted with TBS to an extent of 1,000-fold) was added thereto followed by subjecting to the reaction at 4° C. for one night. The primary antibody was removed and washed with a TBS for three times. After that, the secondary antibody (Alexa 488 goat anti-rabbit antibody; Invitrogen: being diluted to an extent of 1,000-fold using a TBS containing 1% Block Ace) was added thereto and the reaction was conducted at room temperature for 3 hours. The secondary antibody was removed and, after washing with a TBS, fixation was conducted with 4% PFA for 1 hour.
# This was washed with a TBS, Hoechst (diluted with a TBS to an extent of 2000-fold) was added thereto and nuclear staining was conducted. This was washed and mounted.
# Taking the photographic pictures and counting the positive cells were conducted as follows. An all-in-one microscope (manufactured by Keyence) was used, exposing time for pMAPK (green) was made 1/2.8 s, the place was appropriately decided in a Hoechst-stained image and the pictures were taken. Four pictures per one glass sheet were taken.
# Photoshop (Adobe) was used and the cells having above a certain luminance were judged to be positive. All cells were labeled using Hoechst 33342 manufactured by Invitrogen and the rate of pMAPK-positive cells in Hoechst-positive cells was calculated. (cf. Table 7)
# [2] = test system: paclitaxel-induced peripheral nerve disorder rats; assay: von Frey test in paclitaxel-induced peripheral nerve disorder rats; format: in vivo; conditions: Rattus norvegicus, ip; single intraperitoneal dose of 300 μ/kg; higher of the thresholds after 1 hour and 5 hours; normal threshold 15; read-out: Recovery rate of 50% reaction threshold value (%)
# Description: The effect of the compound of the present invention was tested for a peripheral nerve disorder which is a side effect induced by the administration of paclitaxel (an anti-cancer agent) such as hyperesthesia including allodynia (severe pain induced by such tactile stimuli which usually cause no pain). The compound of the present invention was intraperitoneally administered to rats as a test drug to conduct a von Frey test.
# Male SD rats of six weeks age (one group comprising six rats) were used as experimental animals and paclitaxel (2 mg/kg) was intraperitoneally administered every other day for four times in total to prepare paclitaxel-induced peripheral nerve disorder rats. During 18 and 25 days or during 20 to 27 days after initiation of paclitaxel administration, the test drug was intraperitoneally administered in a single dose of […] and the following von Frey test was conducted.
# The rats of the above (1) were placed in a transparent acrylic cage with a wire-meshed floor and habituated for about three minutes and the 50% reaction threshold values to the mechanical stimulus of right hind limb were measured before administration of the test drug and after 1, 5 and 24 hours from initiation of the administration.
# The measurement was conducted using von Frey filaments (manufactured by North Coast Medical Inc.) in accordance with the methods of Chaplan, et al. (Journal of Neuroscience Methods, vol. 53, no. 1, pages 55 to 63, 1994) and Dixon, et al. (Annual Review of Pharmacology and Toxicology, vol. 20, pages 441 to 462, 1980). […] The case where the rat escaped at the instance of removing the filament was also called positive. When the positive reaction was noted, stimulus was conducted similarly using a filament of one rank weaker while, when no reaction was noted, stimulus was conducted similarly using a filament of one rank stronger and the point when the reaction changed from negative to positive or from positive to negative was called the first two reactions. After that, stimulus was conducted for continuous four times by the same up-down method. A 50% reaction threshold value to the mechanical stimulus was measured using the reaction to the six stimuli in total and then (mean value)±(standard error) for each group was calculated. Incidentally, when stimulus reached by that of 15.0 g without positive reaction or, when positive reaction continued to 0.4 g, then 15.0 g or 0.25 g was adopted as each threshold value, respectively. With regard to the higher 50% reaction threshold value between the 50% threshold values after 1 hour and 5 hours from administration of a test drug, a recovery rate (%) of the 50% reaction threshold value was calculated by the following expression in which 15 was adopted as the normal threshold value. Recovery rate (%) of 50% reaction threshold value=[(50% reaction threshold value after 1 hour or 5 hours from administration of test drug)−(50% reaction threshold value before administration of test drug)]/[(Normal threshold value)−(50% reaction threshold value before administration of test drug)]
Compound,inhibition in vivo at 0.3 mg/kg [2],further results
"CCCCCCC/C=C/C(=O)OCCCN(C)C [Compound 2, (E)-3-(dimethylamino)propyl dec-2-enoate]",58.1%,Rate of pMAPK-positive cells (%) ([1]; 62.5 μg/mL): 0%; Rate of pMAPK-positive cells (%) ([1]; 125 μg/mL): 19%; Rate of pMAPK-positive cells (%) ([1]; 250 μg/mL): 71%; Rate of pMAPK-positive cells (%) ([1]; 500 μg/mL): 53%
"CCCCCCC/C=C/C(=O)OC(C)CN(C)C (centres unmarked) [Compound 3, (E)-1-(dimethylamino)propan-2-yl dec-2-enoate]",–,Rate of pMAPK-positive cells (%) ([1]; 62.5 μg/mL): 0%; Rate of pMAPK-positive cells (%) ([1]; 125 μg/mL): 12%; Rate of pMAPK-positive cells (%) ([1]; 250 μg/mL): 14%; Rate of pMAPK-positive cells (%) ([1]; 500 μg/mL): 14%
"CCCCCCC/C=C/C(=O)OCC(C)(C)CN(C)C [Compound 5, (E)-3-(dimethylamino)-2,2-dimethylpropyl dec-2-enoate]",–,Rate of pMAPK-positive cells (%) ([1]; 62.5 μg/mL): 1%; Rate of pMAPK-positive cells (%) ([1]; 125 μg/mL): 23%; Rate of pMAPK-positive cells (%) ([1]; 250 μg/mL): 0%; Rate of pMAPK-positive cells (%) ([1]; 500 μg/mL): 24%
"CCCCCCC/C=C/C(=O)OCCSC(C)C [Compound 8, (E)-2-(isopropylthio)ethyl dec-2-enoate]",32.2%,–
"CCCCCCC/C=C/C(=O)OCCOC [Compound 9, (E)-2-methoxyethyl dec-2-enoate]",51.4%,–
"CCCCCCC/C=C/C(=O)OCCOCC [Compound 10, (E)-2-ethoxyethyl dec-2-enoate]",26.4%,–
"CCCCCCC/C=C/C(=O)OC(COCC)COCC [Compound 11, (E)-1,3-diethoxy-2-propyl dec-2-enoate]",37.6%,–
"CCCCCCC/C=C/C(=O)OCCOCCN(C)C [Compound 12, (E)-2-(2-(dimethylamino)ethoxy)ethyl dec-2-enoate]",–,Rate of pMAPK-positive cells (%) ([1]; 62.5 μg/mL): 11%; Rate of pMAPK-positive cells (%) ([1]; 125 μg/mL): 17%; Rate of pMAPK-positive cells (%) ([1]; 250 μg/mL): 9%; Rate of pMAPK-positive cells (%) ([1]; 500 μg/mL): 29%
"CCCCCCC/C=C/C(=O)NC [Compound 15, (E)-N-methyl dec-2-enamide]",37.7%,–
"CCCCCCC/C=C/C(=O)NCC [Compound 16, (E)-N-ethyl dec-2-enamide]",59.7%,–
"CCCCCCC/C=C/C(=O)NCCCC [Compound 17, (E)-N-butyl dec-2-enamide]",52.6%,–
"CCCCCCC/C=C/C(=O)NCC(C)C [Compound 18, (E)-N-isobutyl dec-2-enamide]",54.6%,–
"CCCCCCC/C=C/C(=O)NCCCCC [Compound 19, (E)-N-pentyl dec-2-enamide]",73.7%,–
"CCCCCCC/C=C/C(=O)NCCC(C)C [Compound 20, (E)-N-isopentyl dec-2-enamide]",42.5%,–
"CCCCCCC/C=C/C(=O)NC(C)(C)CC [Compound 21, (E)-N-tert-pentyl dec-2-enamide]",63.2%,–
"CCCCCCC/C=C/C(=O)NCCCCCC [Compound 22, (E)-N-hexyl dec-2-enamide]",64.6%,–
"CCCCCCC/C=C/C(=O)NCCCCCCC [Compound 23, (E)-N-heptyl dec-2-enamide]",28.6%,–
"CCCCCCC/C=C/C(=O)NC(CCC)CCC [Compound 24, (E)-N-(heptan-4-yl) dec-2-enamide]",56.1%,–
"CCCCCCC/C=C/C(=O)NC(CC)CCCCC (centres unmarked) [Compound 25, (E)-N-(octan-3-yl) dec-2-enamide]",33.7%,–
"CCCCCCC/C=C/C(=O)NC(C)(C)CC(C)(C)C [Compound 26, (E)-N-(2,4,4-trimethylpentan-2-yl) dec-2-enamide]",55.7%,–

Compound,inhibition in vivo at 0.3 mg/kg [2],further results
"CCCCCCC/C=C/C(=O)NC1CCCCC1 [Compound 27, (E)-N-cyclohexyl dec-2-enamide]",46.4%,–
"CCCCCCC/C=C/C(=O)Nc1ccccc1 [Compound 28, (E)-N-phenyl dec-2-enamide]",19.4%,–
"CCCCCCC/C=C/C(=O)NCCc1ccccc1 [Compound 29, (E)-N-phenethyl dec-2-enamide]",46.3%,–
"CCCCCCC/C=C/C(=O)N(CC)CC [Compound 31, (E)-N,N-diethyl dec-2-enamide]",43.1%,Rate of pMAPK-positive cells (%) ([1]; 62.5 μg/mL): 79%; Rate of pMAPK-positive cells (%) ([1]; 125 μg/mL): 95%; Rate of pMAPK-positive cells (%) ([1]; 250 μg/mL): 98%; Rate of pMAPK-positive cells (%) ([1]; 500 μg/mL): 96%
"CCCCCCC/C=C/C(=O)N(CCCC)CCCC [Compound 32, (E)-N,N-dibutyl dec-2-enamide]",70.6%,–
"CCCCCCC/C=C/C(=O)N(CCCCC)CCCCC [Compound 33, (E)-N,N-dipentyl dec-2-enamide]",45.3%,–
"CCCCCCC/C=C/C(=O)N(CCCCCC)CCCCCC [Compound 34, (E)-N,N-dihexyl dec-2-enamide]",48.3%,–
"CCCCCCC/C=C/C(=O)N(CC)CCCCCCC [Compound 35, (E)-N-ethyl-N-heptyl dec-2-enamide]",47.1%,–
"CCCCCCC/C=C/C(=O)NCCCN(C)C [Compound 38, (E)-N-3-(dimethylamino)propyl dec-2-enamide]",52.1%,–
"CCCCCCC/C=C/C(=O)NCCCN(CC)CC [Compound 39, (E)-N-3-(diethylamino)propyl dec-2-enamide]",49.7%,–
"CCCCCCC/C=C/C(=O)NCCN(C(C)C)C(C)C [Compound 40, (E)-N-2-(diisopropylamino)ethyl dec-2-enamide]",71.5%,–
"CCCCCCC/C=C/C(=O)NCCN(CCCC)CCCC [Compound 41, (E)-N-2-(dibutylamino)ethyl dec-2-enamide]",28.3%,–
"CCCCCCC/C=C/C(=O)SCCCCC [Compound 48, (E)-S-pentyl dec-2-enethioate]",50.7%,–
"CCCCCCC/C=C/C(=O)SCCC(C)C [Compound 49, (E)-S-isopentyl dec-2-enethioate]",69.3%,–
"CCCCCCC/C=C/C(=O)SCCCCCC [Compound 50, (E)-S-hexyl dec-2-enethioate]",51.7%,–
"CCCCCCC/C=C/C(=O)SCCCCCCC [Compound 51, (E)-S-heptyl dec-2-enethioate]",45.7%,–
"CCCCCCC/C=C/C(=O)SCCCCCCCCCC [Compound 52, (E)-S-decyl dec-2-enethioate]",18.7%,–
"CCCCCCC/C=C/C(=O)SC1CCCC1 [Compound 53, (E)-S-cyclopentyl dec-2-enethioate]",34.9%,–
"CCCCCCC/C=C/C(=O)SCCc1ccccc1 [Compound 54, (E)-S-phenethyl dec-2-enethioate]",51.9%,–

# Reference: patent publication US8987486B2, “Trans-2-decenoic acid derivative and pharmaceutical agent containing the same” (Nagoya Industrial Science Research Institute, priority 2010, dated 2015)
